Reference: patent US20190183927A1, “MEDICAL AND NUTRITIONAL COMPOSITIONS AND METHODS OF USE” (Sulfilatec, Inc., priority 2016, published 2019)
“Also recorded” adds a separate entry of the source.

Tests used:
[1] = system: acute heart failure patients; settings: cited from earlier work
[2] = humans, in some circumstances, due to renal reabsorption; cited from earlier work
[3] = Serum Br^− concentration in Dahl rats after 10 weeks on diet (mass spectrometry)
Description: (FIG. 2A) Serum Br^− concentrations from rats fed a daily diet over 10 weeks of “AIN-76A”, “AIN-76A+8% NaCl”, “AIN-76A+Br”, or “AIN-76A+8% NaCl+Br”. […] The two diets containing 8% NaCl (eg. “AIN-76A+8% NaCl” and “AIN-76A+8% NaCl+Br”) were fed to Dahl rats while the remaining two diets (eg. “AIN-76A” and “AIN-76A+Br”) were fed to SHR, as indicated in panel A. Serum Br^− measurements were determined using mass spectrometry.
Thus, Dahl rats were fed a diet supplemented with 8% NaCl (AIN76A base diet) over the course of 10 weeks.
To test the invention, another group of Dahl rats were administered AIN76A supplemented with 8% NaCl and 300 mg NaBr per kg of food. Considering that the rat body weights increased from around 300 g to around 400 g over the course of the study, and assuming that the rats ate a relatively constant amount of 25 g of food per day, the daily consumption of Br^− ranged from approximately 14.6 to 19.4 mg Br^− per kg body weight, in accordance with the invention.

[4] = system: salt sensitive Dahl rats; assay: Survival of salt sensitive Dahl rats on high salt (8% NaCl) diet with or without NaBr, 10 week study; assay type: in vivo, rat
Description: Control rats received AIN76A without supplemental chloride or bromide. 9 rats per study arm.
Dahl rats were administered a base diet of AIN76A with 8% NaCl, while a parallel arm was administered AIN76A with 8% NaCl and 300 mg of NaBr per kg of food. Mortality events were counted over the 10 week study.

[5] = system: spontaneously hypertensive rat (SHR); assay: Blood pressure and heart rate (tail cuff) after single IP administration of NaBr in SHR; assay type: in vivo; settings: single IP 154.5 μg NaBr per kg
Description: (A) In 10 week-old male SHR, single administration of Br^− reduced systolic and diastolic blood pressures compared to saline control. […] (C-D) Measured values for systolic (C) and diastolic (D) blood pressure, denoting statistical significance where achieved. 154.5 μg NaBr per kg rat body weight injected via IP. n=8 in Br Treatment group, =5 in saline control. BP & HR measured via tail cuff. *:p<0.05, T test.
(§1) The inventors next asked whether Br^− exerts any short-term activity in addition to the improved cardiac fibrosis noted after 10 weeks administration. Returning to the SHR preclinical model of disease, the inventors specifically asked whether Br^− administration modulates certain biomarkers associated with cardiovascular disease at one day post-administration. To this end, Br^− was administered to 8 SHR via intraperitoneal (IP) injection with an estimated 0.154 μg NaBr per gram body weight. For control, 8 SHR were administered saline via IP injection containing an estimated 4 ng NaBr per gram body weight. […] Moreover, the inventors believe that Br^− achieves its cardiovascular and renal therapeutic activities in part via modulation of natriuretic peptide signaling.

[6] = system: spontaneously hypertensive rat (SHR); assay: Cardiac interstitial fibrosis, Masson's Trichrome staining, SHR; assay type: in vivo; settings: 10 mg NaBr per kg AIN-76a, 10 weeks, p<0.0001
Description: (§2) AIN-76A was base diet for all animals. […] Fibrosis determined from 5 μm tissue sections stained with Masson's Trichrome. […] Approximately 25-30 images were collected and processed per animal.
Following conclusion of the in vivo study, rat hearts were formalin-fixed, paraffin-embedded, and 5 μm-thick sections were obtained for histochemical analysis.

[7] = system: salt sensitive Dahl rats; assay: Cardiac interstitial fibrosis, Masson's Trichrome staining, Dahl rats on high salt diet; assay type: in vivo, rat; settings: 300 mg NaBr per kg AIN-76a+8% NaCl, 10 weeks, p<0.0001
Description: as §2

[8] = dogs that do not respond to an initial course of Br^− treatment; cited from earlier work
[9] = in vivo; cited from earlier work
[10] = system: spontaneously hypertensive rat (SHR); assay: 10 week daily dietary Br^− administration in SHR disease model (heart weight, survival, urinary protein); assay type: in vivo
Description: (FIG. 5 A-B) Heart and kidney weights from 10 week repeat dosing study in SHR model. Br^− administered daily via diet, with AIN-76a as base diet. WKY served as genetic control. Both kidneys per animal weighed together. […] (FIG. 5C-D) Heart and kidney weights from panels A-B normalized to body weight. […] (FIG. 5E) Rats were administered a diet of AIN76A with or without 10 mg NaBr per kg feed (“SHR” and “SHR+Br” study arms, […]). Survival probability was calculated between SHR rats receiving dietary Br— and SHR rats receiving AIN76A control diet over a 10 week study period. As a second control, Wistar Kyoto (WKY) rats were fed AIN76A control diet over the same period. 8 rats per study arm.
Eight SHR animals received AIN76A diet for 10 weeks while 8 SHR animals received AIN76A supplemented with 10 mg NaBr/kg diet.

[11] = system: brain natriuretic peptide (BNP); assay: Serum BNP by ELISA after single IP administration of NaBr in SHR; assay type: in vivo, rat; settings: single IP 154.5 μg NaBr per kg, one day post-administration, p<0.05
Description: 154.5 μg NaBr per kg rat body weight injected via IP. n=8 in Br Treatment group, =5 in saline control. Baseline serum collection occurred two days prior to treatment. *: p<0.05, T test.
as §1

[12] = Serum Br^− concentration in spontaneously hypertensive rats (SHR) after 10 weeks on diet, safety
Description: (FIG. 2A) Serum Br^− concentrations from rats fed a daily diet over 10 weeks of “AIN-76A”, “AIN-76A+8% NaCl”, “AIN-76A+Br”, or “AIN-76A+8% NaCl+Br”. Salt sensitive Dahl rats as well as Spontaneously Hypertensive Rats (SHR) were used in these studies. The two diets containing 8% NaCl (eg. “AIN-76A+8% NaCl” and “AIN-76A+8% NaCl+Br”) were fed to Dahl rats while the remaining two diets (eg. “AIN-76A” and “AIN-76A+Br”) were fed to SHR, as indicated in panel A. Serum Br^− measurements were determined using mass spectrometry.
Rats were administered 10 mg of NaBr per kg of AIN76A diet for 10 weeks. At the end of the study, serum Br^− levels in Br-treated rats were compared to serum Br^− levels in SHR on AIN76A as well as Wistar rats on AIN76A.

[13] = acute decompensated heart failure (Sackner-Bernstein et al. 2005)

nesiritide
mortality [1, 13]: increased mortality
renal function [1, 13]: worsening renal function

[Br-].[Na+] [Br^−, sodium bromide]
half-life [2]: ≥ 170 h
mean serum Br^− ([3]; 10 weeks on diet, end of study): 246.50 µM
toxicity assessment of serum Br^− concentrations ([3]; daily diet over 10 weeks): well below those levels required to induce bromide-associated toxicity
survival compared to High Salt alone (log rank test) ([4]; 9 rats per arm, p<0.001): significantly improved survival
survival probability ([4]; AIN76A+8% NaCl with or without 300 mg NaBr per kg feed, 10 weeks): 67%
systolic blood pressure ([5]; one day post-administration, vs saline control): statistically significant reductions; also recorded: reduced
heart rate ([5]; p=0.052): possible reduction
diastolic blood pressure ([5]; vs saline control): reduced
cardiac fibrosis (Masson's Trichrome blue staining) [6]: dramatic reduction in blue staining; also recorded: less cardiac fibrosis
cardiac fibrosis (Masson's Trichrome blue staining) [7]: less cardiac fibrosis
therapeutic serum Br^− for sedative effect [8]: above 25 mM
circulating Br^− level at which the anti-epilepsy effect occurs [9]: > 6 mM
heart weight (absolute) ([10]; 10 mg NaBr per kg AIN-76a, 10 weeks, vs SHR on AIN-76a alone, p<0.05): significantly reduced; also recorded: Statistically significant reduction
treatment-induced mortality or electrolyte disturbances ([10]; 10 mg NaBr/kg diet, 10 weeks): No treatment-induced mortality or electrolyte disturbances
survival probability among groups ([10]; 10 week study, 8 rats per arm): no statistical difference in survival
heart weight normalized to body weight ([10]; 10 weeks): this trend was preserved; also recorded: Trends observed in absolute weights are preserved
urinary microprotein/creatinine ratio (urinary protein levels) ([10]; after one day on study diet, persisted to end of study): significantly lower; also recorded: significantly reduced
serum concentration of BNP peptide [11]: statistically significant increase; also recorded: significantly modulated
mean serum Br^− ([12]; 10 mg NaBr per kg AIN76A diet, 10 weeks): 281.7 µM
toxicity assessment of serum Br^− concentrations ([12]; daily diet over 10 weeks): below the toxicity threshold

CC[C@H](C)[C@@H]1NC(=O)[C@H](CCCNC(=N)N)NC(=O)[C@H](CC(=O)O)NC(=O)[C@H](CCSC)NC(=O)[C@H](CCCNC(=N)N)NC(=O)CNC(=O)CNC(=O)[C@H](Cc2ccccc2)NC(=O)[C@@H](NC(=O)[C@H](CO)NC(=O)[C@H](CO)NC(=O)[C@H](CCCNC(=N)N)NC(=O)[C@H](CCCNC(=N)N)NC(=O)[C@H](CC(C)C)NC(=O)[C@@H](N)CO)CSSC[C@@H](C(=O)N[C@@H](CC(N)=O)C(=O)N[C@@H](CO)C(=O)N[C@@H](Cc2ccccc2)C(=O)N[C@@H](CCCNC(=N)N)C(=O)N[C@@H](Cc2ccc(O)cc2)C(=O)O)NC(=O)CNC(=O)[C@H](CC(C)C)NC(=O)CNC(=O)[C@H](CO)NC(=O)[C@H](CCC(N)=O)NC(=O)[C@H](C)NC(=O)CNC1=O [carperitide]
in-hospital mortality ([1]; acute heart failure patients in Japan (Matsue et al. 2015)): increased in-hospital mortality
